The results in this text go back to patent publication US8017612B2, “Piperazine compound and use thereof as a HCV polymerase inhibitor” (priority 2006, dated 2011).

Molecules are shown by their SMILES. Where only a bound is given, the exact number is not on record here.

In assay [1] the target is T1, HCV polymerase (NS5B) type 1b (Hepatitis C virus genotype 1b, UniProt P26663).
T1 construct: a region encoding NS5B (J Virol 1991 March, 65(3), 1105-13, 544 amino acids after deletion of 47 amino acids on the C-terminal); 6xHis (C); made in house; host or cells: Escherichia coli
The assay can be described thus: Assay of enzyme (HCV polymerase) inhibitory activity, type 1b enzyme. As to conditions: HCV polymerase inhibitory activity IC50, 1b, type 1b enzyme. The format is biochemical, HCV BK strain (type 1b). In a few lines:
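His-tagged, C-terminally truncated NS5B (BK strain, 1b; 0.5 μg/ml) incubated with compound 60 min at 25 °C on 3′UTR-derived substrate RNA (5 μg/ml), 50 μM ATP/GTP/CTP, 2 μM UTP plus [3H]UTP, pH 7.5. Acid-precipitated RNA counted; IC50 from radioactivity with and without compound.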

In assay [2] the target is T2, HCV polymerase (NS5B) type 1a (Hepatitis C virus genotype 1a, UniProt P26664).
T2 construct: made in house; host or cells: Escherichia coli (by the 'similar method' of the 1b enzyme)
The assay can be described thus: Assay of enzyme (HCV polymerase) inhibitory activity, type 1a enzyme. To be noted: HCV polymerase inhibitory activity IC50, 1a, type 1a enzyme. The format is biochemical, HCV type 1a (cloned from the blood of patients). Put shortly:
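His-tagged NS5B, C-terminal 47 residues deleted, type 1a at 1.5 μg/ml, with 5 μg/ml HCV 3′UTR substrate RNA, 50 μM ATP/GTP/CTP, 2 μM UTP plus [3H]UTP, pH 7.5 Tris, 5 mM MgCl2; 60 min at 25° C. TCA-precipitated RNA counted by scintillation; IC50 from radioactivity with vs. without compound.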

As to `O=C(NCc1ccc(OC(F)(F)F)cc1)[C@H]1CN(c2nc3c(=O)[nH]ncc3s2)CCN1S(=O)(=O)c1ccc(OC(F)(F)F)cc1` [Example 937, (R)-4-(4-oxo-4,5-dihydro-thiazolo[4,5-d]pyridazin-2-yl)-1-(4-trifluoromethoxy-benzenesulfonyl)-piperazine-2-carboxylic acid 4-trifluoromethoxy-benzylamide], the IC50 in assay [1] and in assay [2] was below 100 nM throughout.

`COC(F)(F)c1ccc(CNC(=O)[C@H]2CN(c3nc4cn[nH]c(=O)c4s3)CCN2S(=O)(=O)c2ccc(OC(F)(F)F)cc2)cc1` [Example 938, (R)-4-(7-oxo-6,7-dihydro-thiazolo[4,5-d]pyridazin-2-yl)-1-(4-trifluoromethoxy-benzenesulfonyl)-piperazine-2-carboxylic acid 4-(difluoro-methoxy-methyl)-benzylamide]: the figures for the IC50 in assay [1] and in assay [2] were below 100 nM and 100 to 1000 nM, respectively.

On to `O=C(NCc1ccc(OC(F)(F)F)cc1)[C@H]1CN(c2nc3c(CO)nncc3s2)CCN1S(=O)(=O)c1ccc(OC(F)(F)F)cc1` [Example 940, (R)-4-(4-hydroxymethyl-thiazolo[4,5-d]pyridazin-2-yl)-1-(4-trifluoromethoxy-benzenesulfonyl)-piperazine-2-carboxylic acid 4-trifluoromethoxy-benzylamide], for which the half-maximal inhibitory concentration (IC50) in assay [1] and in assay [2] was below 100 nM throughout.

Consider `Cc1nc(Cl)c2sc(N3CCN(S(=O)(=O)c4ccc(OC(F)(F)F)cc4)[C@@H](C(=O)NCc4ccc(OC(F)F)cc4)C3)nc2n1` [Example 941, (R)-4-(7-chloro-5-methyl-thiazolo[4,5-d]pyrimidin-2-yl)-1-(4-trifluoromethoxy-benzenesulfonyl)-piperazine-2-carboxylic acid 4-difluoromethoxy-benzylamide], for which the IC50 in assay [1] and in assay [2] was below 100 nM each time.

Take `Cc1ncc2sc(N3CCN(S(=O)(=O)c4ccc(OC(F)(F)F)cc4)[C@@H](C(=O)NCc4ccc(OC(F)F)cc4)C3)nc2n1` [Example 942, (R)-4-(5-methyl-thiazolo[4,5-d]pyrimidin-2-yl)-1-(4-trifluoromethoxy-benzenesulfonyl)-piperazine-2-carboxylic acid 4-difluoromethoxy-benzylamide]: the IC50 in assay [1] and in assay [2] was below 100 nM throughout.

Consider `Nc1ncc2sc(N3CCN(S(=O)(=O)c4ccc(OC(F)(F)F)cc4)[C@@H](C(=O)NCc4ccc(OC(F)(F)F)cc4)C3)nc2n1` [Example 943, (R)-4-(5-amino-thiazolo[4,5-d]pyrimidin-2-yl)-1-(4-trifluoromethoxy-benzenesulfonyl)-piperazine-2-carboxylic acid 4-trifluoromethoxy-benzylamide], for which the IC50 in assay [1] and in assay [2] was below 100 nM in each case.

For `COc1nncc2nc(N3CCN(S(=O)(=O)c4ccc(OC(F)(F)F)cc4)[C@@H](C(=O)NCc4ccc(OC(F)(F)F)cc4)C3)sc12` [Example 944, (R)-4-(7-methoxy-thiazolo[4,5-d]pyridazin-2-yl)-1-(4-trifluoromethoxy-benzenesulfonyl)-piperazine-2-carboxylic acid 4-trifluoromethoxy-benzylamide], the IC50 in assay [1] and in assay [2] was below 100 nM each time.

For `CN(C)c1ncc2sc(N3CCN(S(=O)(=O)c4ccc(OC(F)(F)F)cc4)[C@@H](C(=O)NCc4ccc(OC(F)(F)F)cc4)C3)nc2n1` [Example 945, (R)-4-(5-dimethylamino-thiazolo[4,5-d]pyrimidin-2-yl)-1-(4-trifluoromethoxy-benzenesulfonyl)-piperazine-2-carboxylic acid 4-trifluoromethoxy-benzylamide], the IC50 in assay [1] and in assay [2] was below 100 nM in each case.

Consider `O=C(NCc1ccc(OC(F)(F)F)cc1)[C@H]1CN(c2nc3nc(NCCO)ncc3s2)CCN1S(=O)(=O)c1ccc(OC(F)(F)F)cc1` [Example 946, (R)-4-[5-(2-hydroxy-ethylamino)-thiazolo[4,5-d]pyrimidin-2-yl]-1-(4-trifluoromethoxy-benzenesulfonyl)-piperazine-2-carboxylic acid 4-trifluoromethoxy-benzylamide], for which the IC50 in assay [1] and in assay [2] was below 100 nM each time.

In the case of `O=C(NCc1ccc(OC(F)(F)F)cc1)[C@H]1CN(c2nc3nc(Cl)ncc3s2)CCN1S(=O)(=O)c1ccc(C(F)(F)F)s1` [Example 947, (R)-4-(5-chloro-thiazolo[4,5-d]pyrimidin-2-yl)-1-(5-trifluoromethyl-thiophene-2-sulfonyl)-piperazine-2-carboxylic acid 4-trifluoromethoxy-benzylamide], the IC50 in assay [1] and in assay [2] was below 100 nM in each case.

As to `COC(=O)c1cc(=O)nc2sc(N3CCN(S(=O)(=O)c4ccc(OC(F)(F)F)cc4)[C@@H](C(=O)NCc4ccc(OC(F)(F)F)cc4)C3)nn12` [Example 948, 7-oxo-2-[(R)-4-(4-trifluoromethoxy-benzenesulfonyl)-3-(4-trifluoromethoxy-benzylcarbamoyl)-piperazin-1-yl]-7H-[1,3,4]thiadiazolo[3,2-a]pyrimidine-5-carboxylic acid methyl ester], the half-maximal inhibitory concentration (IC50) in assay [1] and in assay [2] was below 100 nM in each case.

Take `CCc1ncc2sc(N3CCN(S(=O)(=O)c4ccc(OC(F)(F)F)cc4)[C@@H](C(=O)NCc4ccc(OC(F)(F)F)cc4)C3)nc2n1` [Example 949, (R)-4-(5-ethyl-thiazolo[4,5-d]pyrimidin-2-yl)-1-(4-trifluoromethoxy-benzenesulfonyl)-piperazine-2-carboxylic acid 4-trifluoromethoxy-benzylamide]: the IC50 in assay [1] and in assay [2] was below 100 nM each time.

As to `CCc1ncc2sc(N3CCN(S(=O)(=O)c4ccc(C(F)(F)F)cc4)[C@@H](C(=O)NCc4ccc(OC(F)(F)F)cc4)C3)nc2n1` [Example 950, (R)-4-(5-ethyl-thiazolo[4,5-d]pyrimidin-2-yl)-1-(4-trifluoromethyl-benzenesulfonyl)-piperazine-2-carboxylic acid 4-trifluoromethoxy-benzylamide], the IC50 in assay [1] and in assay [2] was below 100 nM throughout.

As for `O=C(NCc1ccc(OC(F)(F)F)cc1)[C@H]1CN(c2nn3c(C(F)(F)F)nnc3s2)CCN1S(=O)(=O)c1ccc(OC(F)(F)F)cc1` [Example 951, (R)-1-(4-trifluoromethoxy-benzenesulfonyl)-4-(3-trifluoromethyl-[1,2,4]triazolo[3,4-b][1,3,4]thiadiazol-6-yl)-piperazine-2-carboxylic acid 4-trifluoromethoxy-benzylamide], the IC50 in assay [1] and in assay [2] was below 100 nM throughout.

On to `CNc1ncc2sc(N3CCN(S(=O)(=O)c4ccc(OC(F)(F)F)cc4)[C@@H](C(=O)NCc4ccc(OC(F)(F)F)cc4)C3)nc2n1` [Example 952, (R)-4-(5-methylamino-thiazolo[4,5-d]pyrimidin-2-yl)-1-(4-trifluoromethoxy-benzenesulfonyl)-piperazine-2-carboxylic acid 4-trifluoromethoxy-benzylamide], for which the 50% inhibitory concentration (IC50) in assay [1] and in assay [2] was below 100 nM throughout.

For the compound `O=C(NCc1ccc(OC(F)(F)F)cc1)[C@H]1CN(c2nn3cnnc3s2)CCN1S(=O)(=O)c1ccc(C(F)(F)F)cc1` [Example 953, (R)-4-[1,2,4]triazolo[3,4-b][1,3,4]thiadiazol-6-yl-1-(4-trifluoromethyl-benzenesulfonyl)-piperazine-2-carboxylic acid 4-trifluoromethoxy-benzylamide], the IC50 in assay [1] and in assay [2] was below 100 nM in each case.

In the case of `O=C(NCc1ccc(OC(F)F)cc1)[C@H]1CN(c2nn3cnnc3s2)CCN1S(=O)(=O)c1ccc(OC(F)(F)F)cc1` [Example 954, (R)-4-[1,2,4]triazolo[3,4-b][1,3,4]thiadiazol-6-yl-1-(4-trifluoromethoxy-benzenesulfonyl)-piperazine-2-carboxylic acid 4-difluoromethoxy-benzylamide], the IC50 in assay [1] and in assay [2] was below 100 nM each time.

As for `O=C(NCc1ccc(OC(F)F)cc1)[C@H]1CN(c2nc3nc(Cl)ncc3s2)CCN1S(=O)(=O)c1ccc(OC(F)F)cc1` [Example 955, (R)-4-(5-chloro-thiazolo[4,5-d]pyrimidin-2-yl)-1-(4-difluoromethoxy-benzenesulfonyl)-piperazine-2-carboxylic acid 4-difluoromethoxy-benzylamide], the IC50 in assay [1] and in assay [2] was below 100 nM in each case.

Take `O=C(NCc1ccc(OC(F)F)cc1)[C@H]1CN(c2nc3ncncc3s2)CCN1S(=O)(=O)c1ccc(OC(F)F)cc1` [Example 956, (R)-1-(4-difluoromethoxy-benzenesulfonyl)-4-thiazolo[4,5-d]pyrimidin-2-yl-piperazine-2-carboxylic acid 4-difluoromethoxy-benzylamide]: the IC50 in assay [1] and in assay [2] was below 100 nM throughout.

On to `Cn1ncc2sc(N3CCN(S(=O)(=O)c4ccc(OC(F)(F)F)cc4)[C@@H](C(=O)NCc4ccc(OC(F)(F)F)cc4)C3)nc2c1=O` [Example 957, (R)-4-(5-methyl-4-oxo-4,5-dihydro-thiazolo[4,5-d]pyridazin-2-yl)-1-(4-trifluoromethoxy-benzenesulfonyl)-piperazine-2-carboxylic acid 4-trifluoromethoxy-benzylamide], for which the IC50 in assay [1] and in assay [2] was below 100 nM throughout.
